# Test results taken from PMC11284788, “NN1213 – A Potent, Long-Acting, and Selective Analog of Human Amylin” (Journal of Medicinal Chemistry, 2024).
# Read-outs that look alike come from different tables or passages of the source. Numbered stars: 1 amine (or outer) side, 2 acyl side, 3 side chain; on linkers, the order of the positions; unused ones are H or OH. Bridge positions count the residues as written; N and C are the ends. Side chains are listed from the residue outwards. Peptide text beside a SMILES is read from it. * marks the point of attachment. C20 diacid = O=C(O)CCCCCCCCCCCCCCCCCCC(=O)*; γGlu = O=C(O)[C@H](CCC(=O)[*:2])N[*:1]
# How the values were obtained:
# [1] = ThT assay: fibril formation propensity and peptide recovery; format: physicochemical
# Experimental: The stability properties of the individual amylin analogs were assessed with respect to their propensity toward fibril formation, expressed as the time until fibril formation (measured as Lag time) and loss of dissolved peptide (assessed as Peptide Recovery). […] Samples were prepared as described previously (using the same methodology and materials) for a novel amylin-based analog candidate compound.[7]
# Briefly, each compound was dissolved in 10 mM of glycylglycine buffer (pH 4.0) or HEPES buffer (pH 7.5) to a concentration of 250 μM, followed by ThT stock solution to a final concentration of 1 μM. Each solution was aliquoted into a microtiter plate (200 μL/well) sealed with a transparent adhesive sheet. Mechanical stress was applied at 37 °C incubation (960 rpm, 1 mm amplitude) with 20 min fluorescence reading intervals for 45 h (filters: excitation 444 nm; emission 485 nm). Each peptide was tested in experiments consisting of four replicas (e.g., four wells on the same plate), and the lag time of each replica was determined by visual inspection of the fluorescence-versus-time plot. For wells where no fibril formation could be detected, the lag time was set longer than the test period (>45 h). The lag time of the peptide was set to the lowest lag time of the four replicates (conservative estimate). Some of the peptides were tested in more than one experiment, and the lag time results given in Tables 6 and 9 represent the average of these experiments. The ThT time course data given in Supporting Information represent the average and SEM of each experiment.[40] After analysis, wells representing individual replicas were pooled, and the residual soluble peptide was isolated using centrifugation (20,000 g/30 min at room temperature) followed by […] filtration. The amount of residual dissolved peptide was determined using an HPLC with a flow rate of 2 mL/min at 30 °C and 215/276 nm detection. A gradient combining eluent A (7.7% w/w acetonitrile, 200 mM Na2SO4, 20 mM NaH2PO4, 20 mM Na2HPO4, pH 7.2) and eluent B (65.5% w/w acetonitrile) was applied. The amount of residual dissolved peptide was reported on a relative scale (Peptide Recovery) to the amount of dissolved peptide prior to mechanical stress.
# hCTR = target: T1, hCTR (Homo sapiens, UniProt P30988); experiment: cAMP-responsive element luciferase reporter assay, human CTR; format: cell-based; settings: luciferase (human receptor assay)
# T1 sequence (P30988 25-474): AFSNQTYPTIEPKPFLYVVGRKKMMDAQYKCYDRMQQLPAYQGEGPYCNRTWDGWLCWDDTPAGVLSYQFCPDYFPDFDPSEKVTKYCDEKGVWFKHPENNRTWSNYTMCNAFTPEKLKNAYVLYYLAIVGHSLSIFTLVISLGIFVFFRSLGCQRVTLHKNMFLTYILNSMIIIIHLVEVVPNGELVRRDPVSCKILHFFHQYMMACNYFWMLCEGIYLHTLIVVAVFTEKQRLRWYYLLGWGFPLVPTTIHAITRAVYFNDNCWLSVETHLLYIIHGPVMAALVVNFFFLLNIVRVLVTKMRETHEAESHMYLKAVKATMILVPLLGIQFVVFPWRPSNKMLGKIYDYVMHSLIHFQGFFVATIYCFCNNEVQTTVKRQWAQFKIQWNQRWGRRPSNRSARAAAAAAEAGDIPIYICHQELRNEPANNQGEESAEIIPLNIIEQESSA
# rat AMY3R = target: T2, rat AMY3R (Rattus norvegicus, UniProt P32214+Q9JJ73); experiment: cAMP FlashPlate assay, rat AMY3R; format: cell-based; settings: for EC50: cAMP (rat receptor assay)
# T2 construct: expressed in transfected cells; host or cells: BHK tk-ts 13, transient co-transfection (FuGENE 6)
# T2 sequence (P32214 25-479 isoform P32214-2 limits assumed): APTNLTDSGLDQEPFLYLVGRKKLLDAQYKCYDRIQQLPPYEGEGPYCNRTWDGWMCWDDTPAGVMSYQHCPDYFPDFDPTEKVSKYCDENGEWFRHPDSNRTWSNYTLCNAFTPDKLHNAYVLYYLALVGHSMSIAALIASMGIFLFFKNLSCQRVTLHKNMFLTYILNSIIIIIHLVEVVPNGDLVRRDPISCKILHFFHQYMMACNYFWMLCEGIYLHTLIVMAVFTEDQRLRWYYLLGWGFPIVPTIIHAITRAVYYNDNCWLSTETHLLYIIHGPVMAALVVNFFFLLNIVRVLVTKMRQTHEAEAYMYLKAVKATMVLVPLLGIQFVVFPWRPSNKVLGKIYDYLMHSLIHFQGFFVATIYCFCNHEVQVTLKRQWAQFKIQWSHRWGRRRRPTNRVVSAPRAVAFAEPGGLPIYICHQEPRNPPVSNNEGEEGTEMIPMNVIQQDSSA
# T2 sequence (Q9JJ73 23-147 partner): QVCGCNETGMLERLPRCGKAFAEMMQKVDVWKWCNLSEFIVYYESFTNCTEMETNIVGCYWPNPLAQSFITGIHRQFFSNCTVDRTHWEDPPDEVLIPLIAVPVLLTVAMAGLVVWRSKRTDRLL
# [2] = HMWP content by size-exclusion chromatography; format: physicochemical; settings: analogs 1–9 (pH 7.5 series); covalent dimers and polymers prior to fibril formation testing, SEC, % of total absorbance area at 215 nm
# Experimental: The stability properties of the individual amylin analogs were assessed with respect to their propensity toward amyloid fibril formation. The relative amount of covalent dimers and polymers (HMWP) present prior to fibril formation testing was measured as a control for the potential inhibitory effect of HMWP on fibril formation propensity as reported elsewhere.[39]
# Elution was performed under isocratic conditions with the following mobile phase prepared in Milli-Q water (Millipore A/S): 0.5 M NaCl, 10 mM sodium dihydrogen monohydrate, 5 mM ortho-phosphoric acid, 50% (v/v) 2-propanol. The amount of HMWP was determined as the absorbance area of the corresponding peaks given in percentage of the total absorbance area. The molar extinction coefficients of the molecules eluting in the HMWP fraction and the main peak was assumed to be equal.
# rat CTR = target: T3, rat CTR (Rattus norvegicus, UniProt P32214); experiment: cAMP FlashPlate assay, rat CTR; format: cell-based; settings: cAMP (rat receptor assay)
# T3 construct: expressed in transfected cells; host or cells: BHK tk-ts 13, transient (FuGENE 6)
# T3 sequence (P32214 25-479 isoform P32214-2 limits assumed): T2 sequence (P32214 25-479 isoform P32214-2 limits assumed)
# hAMY3R = target: T4, hAMY3R (Homo sapiens, UniProt O60896+P30988); experiment: cAMP-responsive element luciferase reporter assay, human AMY3R; format: cell-based; set-up: expressed in transfected cells; settings: for EC50: luciferase (human receptor assay)
# T4 sequence (P30988 25-474): T1 sequence (P30988 25-474)
# T4 sequence (O60896 24-148 partner): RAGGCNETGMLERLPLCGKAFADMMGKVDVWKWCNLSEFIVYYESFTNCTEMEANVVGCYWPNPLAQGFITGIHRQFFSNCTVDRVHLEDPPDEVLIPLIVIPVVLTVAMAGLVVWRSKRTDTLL
# [3] = Solubility versus pH profile
# rats = settings: cited from earlier work
# Text: SEM is the standard error of the mean. || From the daily consumption of food observed in the DIO rats, the steep decrease around day 2 is a typical pattern observed with appetite-reducing agents in rodents.[31]
# cAMY1R = experiment: Species-specific cAMP assay, cAMY1R; settings: cAMP HTRF, transiently transfected BHK cells, 30 min room temperature, five experiments
# cAMY3R = experiment: Species-specific cAMP assay, cAMY3R; settings: cAMP HTRF, transiently transfected BHK cells, 30 min room temperature, five experiments
# cCTR = experiment: Species-specific cAMP assay, cCTR; settings: cAMP HTRF, transiently transfected BHK cells, 30 min room temperature, five experiments
# [4] = single sc injection of 30 nmol/kg, published previously
compound,measurement,setting,value
CC(C)C[C@H](NC(=O)[C@H](CCCNC(=N)N)NC(=O)[C@H](CCC(N)=O)NC(=O)[C@@H](NC(=O)[C@H](C)NC(=O)[C@@H]1CSSC[C@H](NC(=O)[C@@H](N)CCCCNC(=O)CC[C@H](NC(=O)CCCCCCCCCCCCCCCCCCC(=O)O)C(=O)O)C(=O)N[C@@H](CC(N)=O)C(=O)N[C@@H]([C@@H](C)O)C(=O)N[C@@H](C)C(=O)N[C@@H]([C@@H](C)O)C(=O)N1)[C@@H](C)O)C(=O)N[C@@H](C)C(=O)N[C@@H](CC(=O)O)C(=O)N[C@@H](Cc1ccccc1)C(=O)N[C@@H](CC(C)C)C(=O)N[C@@H](CCCNC(=N)N)C(=O)N[C@@H](Cc1c[nH]cn1)C(=O)N[C@@H](CO)C(=O)N[C@@H](CO)C(=O)N[C@@H](CCC(N)=O)C(=O)N[C@@H](CC(N)=O)C(=O)N[C@@H](Cc1ccccc1)C(=O)NCC(=O)N[C@@H](C)C(=O)N1CCC[C@H]1C(=O)N[C@@H](CC(C)C)C(=O)N[C@@H](CO)C(=O)N[C@@H](CO)C(=O)N[C@H](C(=O)N1CCC[C@H]1C(=O)N[C@H](C(=O)NCC(=O)N[C@@H](CO)C(=O)N[C@@H](CC(=O)O)C(=O)N[C@H](C(=O)N[C@@H](Cc1ccc(O)cc1)C(N)=O)[C@@H](C)O)C(C)C)[C@@H](C)O [Peptide 1] (H-K([γGlu-C20 diacid])CNTATCATQRLADFLRHSSQNFGAPLSSTPVGSDTY-NH2; disulfide 2-7),"ThT, pH 7.5 lag-time","[1]; 250 μM peptide, 10 mM HEPES pH 7.5, 1 μM ThT, 37 °C, 960 rpm, 45 h, lowest of four replicas, average of experiments",>45 h
same,recovery,"[1]; pH 7.5, residual dissolved peptide after 45 h of shaking, centrifugation and 0.22 μm filtration, HPLC, relative to amount before stress",100%
same,EC50,"hCTR; Tables S12 and S14, read-out: hCTR pEC50 (converted)",0.692 nM
same,EC50,"hCTR; BHK cells stably expressing hCTR and CRE-luciferase, 3 h, 37 °C, 10% FBS, read-out: hCTR EC50",0.697 nM
same,EC50,"rat AMY3R; Tables S12 and S14, read-out: rAMY3R pEC50 (converted)",0.468 nM
same,EC50,"rat AMY3R; transiently transfected BHK tk-ts 13 cells, FlashPlate, 30 min room temperature, 2% HSA, read-out: rAMY3R EC50",0.463 nM
same,ratio rCTR/rAMY3R,rat AMY3R; ratio of cAMP EC50 values,31
same,HMWP,[2],7%
same,EC50,"rat CTR; Tables S12 and S14, read-out: rCTR pEC50 (converted)",14.5 nM
same,EC50,"rat CTR; transiently transfected BHK tk-ts 13 cells, FlashPlate, 30 min room temperature, 2% HSA, read-out: rCTR EC50",14.3 nM
same,EC50,"hAMY3R; Tables S12 and S14, read-out: hAMY3R pEC50 (converted)",0.182 nM
same,EC50,"hAMY3R; BHK cells stably expressing hCTR+RAMP3 and CRE-luciferase, 3 h, 37 °C, 10% FBS, read-out: hAMY3R EC50",0.18 nM
same,ratio hCTR/hAMY3R,hAMY3R; ratio of luciferase EC50 values,3.9
same,solubility kinetic,"[3]; bis-tris-propane buffer, pH 6, aqueous buffer",≥ 200 µM
same,solubility kinetic,"[3]; bis-tris-propane buffer, pH 6.5, aqueous buffer",≥ 200 µM
same,solubility kinetic,"[3]; bis-tris-propane buffer, pH 7, aqueous buffer",≥ 200 µM
same,solubility kinetic,"[3]; bis-tris-propane buffer, pH 7.5, aqueous buffer",≥ 200 µM
same,solubility kinetic,"[3]; bis-tris-propane buffer, pH 8, aqueous buffer",≥ 200 µM
same,solubility kinetic,"[3]; lactate buffer, pH 4, aqueous buffer",≥ 200 µM
same,solubility kinetic,"[3]; lactate buffer, pH 5, aqueous buffer",≥ 200 µM
CC[C@H](C)[C@H](NC(=O)[C@@H]1CCCN1C(=O)CNC(=O)[C@H](Cc1ccccc1)NC(=O)[C@H](CC(N)=O)NC(=O)[C@H](CC(N)=O)NC(=O)[C@H](CO)NC(=O)[C@H](CO)NC(=O)[C@H](Cc1c[nH]cn1)NC(=O)[C@H](CCCNC(=N)N)NC(=O)[C@H](CC(C)C)NC(=O)[C@H](Cc1ccccc1)NC(=O)[C@H](CCC(=O)O)NC(=O)[C@H](C)NC(=O)[C@H](CC(C)C)NC(=O)[C@H](CCCNC(=N)N)NC(=O)[C@H](CCC(N)=O)NC(=O)[C@@H](NC(=O)[C@H](C)NC(=O)[C@@H]1CSSC[C@H](NC(=O)[C@H](CCCCN)NC(=O)CC[C@H](NC(=O)CCCCCCCCCCCCCCCCCCC(=O)O)C(=O)O)C(=O)N[C@@H](CC(N)=O)C(=O)N[C@@H]([C@@H](C)O)C(=O)N[C@@H](C)C(=O)N[C@@H]([C@@H](C)O)C(=O)N1)[C@@H](C)O)C(=O)N[C@@H](CC(C)C)C(=O)N1CCC[C@H]1C(=O)N1CCC[C@H]1C(=O)N[C@H](C(=O)N[C@@H](CC(N)=O)C(=O)N[C@H](C(=O)NCC(=O)N[C@@H](CO)C(=O)N[C@@H](CC(N)=O)C(=O)N[C@H](C(=O)N1CCC[C@H]1C(N)=O)[C@@H](C)O)C(C)C)[C@@H](C)O [cagrilintide],reduction in food intake in rats,rats,45%
same,reduction of food intake 0−24 h,rats; [4],85%
same,reduction of food intake 24–48 h,rats; [4],84%
"CC(C)C[C@H](NC(=O)[C@H](CCCCN)NC(=O)CNC(=O)[C@H](CC(C)C)NC(=O)[C@@H](NC(=O)[C@@H]1CSSC[C@H](N)C(=O)N[C@@H](CO)C(=O)N[C@@H](CC(N)=O)C(=O)N[C@@H](CC(C)C)C(=O)N[C@@H](CO)C(=O)N[C@@H]([C@@H](C)O)C(=O)N1)C(C)C)C(=O)N[C@@H](CO)C(=O)N[C@@H](CCC(N)=O)C(=O)N[C@@H](CCC(=O)O)C(=O)N[C@@H](CC(C)C)C(=O)N[C@@H](Cc1c[nH]cn1)C(=O)N[C@@H](CCCCN)C(=O)N[C@@H](CC(C)C)C(=O)N[C@@H](CCC(N)=O)C(=O)N[C@H](C(=O)N[C@@H](Cc1ccc(O)cc1)C(=O)N1CCC[C@H]1C(=O)N[C@@H](CCCNC(=N)N)C(=O)N[C@H](C(=O)N[C@@H](CC(N)=O)C(=O)N[C@H](C(=O)NCC(=O)N[C@@H](CO)C(=O)NCC(=O)N[C@H](C(=O)N1CCC[C@H]1C(N)=O)[C@@H](C)O)[C@@H](C)O)[C@@H](C)O)[C@@H](C)O [sCT, salmon calcitonin, reference compound]",cAMY1R pEC50,cAMY1R,10.61
same,cAMY3R pEC50,cAMY3R,11.16
same,cCTR pEC50,cCTR,11.27
